According to the supplement of paper PMC10307832:

Legend:
Assay in all cases: relative viability (nuclei count vs DMSO), 5 days (fraction); higher = more cells survive
Entinostat + Alpelisib = compound: Nc1ccccc1NC(=O)c1ccc(CNC(=O)OCc2cccnc2)cc1 [Entinostat] + Cc1nc(NC(=O)N2CCC[C@H]2C(N)=O)sc1-c1ccnc(C(C)(C)C(F)(F)F)c1 [Alpelisib] (partner 2 µM)
Method in brief: (§1)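 After 5 days of treatment, lung cancer cells in 1536-well plates were fixed and stained in a single step (final 0.05% Triton X-100, 1% formaldehyde, 1 ug/ml Hoechst) and their nuclei counted on 4× images. Treatment had been applied by pin tool the day after seeding as one drug alone or as a fixed anchor-drug dose with five library-drug doses (not always all listed) in √10 steps. Relative viability is the nuclei count of treated wells divided by that of vehicle wells, and values are medians of duplicate plates.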

Entinostat + Tozasertib = compound: Nc1ccccc1NC(=O)c1ccc(CNC(=O)OCc2cccnc2)cc1 [Entinostat] + Cc1cc(Nc2cc(N3CCN(C)CC3)nc(Sc3ccc(NC(=O)C4CC4)cc3)n2)n[nH]1 [Tozasertib] (partner 0.1 µM)
Method in brief: as §1

Entinostat + Navitoclax = compound: Nc1ccccc1NC(=O)c1ccc(CNC(=O)OCc2cccnc2)cc1 [Entinostat] + CC1(C)CCC(c2ccc(Cl)cc2)=C(CN2CCN(c3ccc(C(=O)NS(=O)(=O)c4ccc(N[C@H](CCN5CCOCC5)CSc5ccccc5)c(S(=O)(=O)C(F)(F)F)c4)cc3)CC2)C1 [Navitoclax] (partner 0.5 µM)
Method in brief: as §1

[1] = compound: C1COCCN1C2=NC(=NC3=C2OC4=C3C=CC=N4)C5=CC(=CC=C5)NC(=O)C6=CN=C(C=C6)N + CC1(C)CCC(c2ccc(Cl)cc2)=C(CN2CCN(c3ccc(C(=O)NS(=O)(=O)c4ccc(N[C@H](CCN5CCOCC5)CSc5ccccc5)c(S(=O)(=O)C(F)(F)F)c4)cc3)CC2)C1 [Navitoclax] (partner 0.5 µM)
Method in brief: as §1

Row | Cell Line | relative viability (Entinostat + Alpelisib; first compound 0.02 µM) | relative viability (Entinostat + Alpelisib; first compound 0.06325 µM) | relative viability (Entinostat + Alpelisib; first compound 0.2 µM) | relative viability (Entinostat + Alpelisib; first compound 0.6325 µM) | relative viability (Entinostat + Alpelisib; first compound 2 µM) | relative viability (Entinostat + Tozasertib; first compound 0.02 µM) | relative viability (Entinostat + Tozasertib; first compound 0.06325 µM) | relative viability (Entinostat + Tozasertib; first compound 0.2 µM) | relative viability (Entinostat + Tozasertib; first compound 0.6325 µM) | relative viability (Entinostat + Tozasertib; first compound 2 µM) | relative viability (Entinostat + Navitoclax; first compound 0.02 µM) | relative viability (Entinostat + Navitoclax; first compound 0.06325 µM) | relative viability (Entinostat + Navitoclax; first compound 0.2 µM) | relative viability (Entinostat + Navitoclax; first compound 0.6325 µM) | relative viability (Entinostat + Navitoclax; first compound 2 µM) | relative viability ([1]; first compound 0.02 µM) | relative viability ([1]; first compound 0.06325 µM) | relative viability ([1]; first compound 0.2 µM) | relative viability ([1]; first compound 0.6325 µM) | relative viability ([1]; first compound 2 µM)
1 | NCI-H2405 | 0.789 | 1.01 | 0.931 | 0.795 | 0.528 | 0.736 | 0.78 | 0.607 | 0.524 | 0.319 | 1 | 1.13 | 1.15 | 0.814 | 0.655 | 0.819 | 0.927 | 0.904 | 0.931 | 0.721
2 | NCI-H3122 | 0.777 | 0.881 | 0.786 | 0.733 | 0.605 | 0.334 | 0.36 | 0.479 | 0.275 | 0.102 | 1.04 | 1 | 1.12 | 0.989 | 0.712 | 0.975 | 1.05 | 1.03 | 1.02 | 0.798
3 | PC-3 [JPC-3] | 0.98 | 0.929 | 0.829 | 0.667 | 0.463 | 0.898 | 0.786 | 0.685 | 0.59 | 0.326 | 0.786 | 0.846 | 0.777 | 0.522 | 0.423 | 0.823 | 0.847 | 0.848 | 0.741 | 0.615
4 | PC-14 | 1.03 | 0.99 | 0.935 | 0.487 | 0.219 | 0.56 | 0.629 | 0.325 | 0.104 | 0.0609 | 0.999 | 1.07 | 1.14 | 0.47 | 0.113 | 1.09 | 1.06 | 1.02 | 1.01 | 0.465
5 | RERF-LC-KJ | 0.846 | 0.704 | 0.866 | 0.647 | 0.427 | 0.417 | 0.4 | 0.349 | 0.215 | 0.198 | 0.679 | 0.905 | 1.13 | 0.414 | 0.314 | 0.966 | 0.995 | 0.759 | 1 | 0.712
6 | SK-LU-1 | 0.954 | 0.962 | 0.943 | 0.555 | 0.458 | 0.335 | 0.337 | 0.278 | 0.182 | 0.169 | 0.633 | 0.76 | 1.1 | 0.37 | 0.368 | 0.982 | 0.724 | 0.863 | 0.765 | 0.447
7 | SK-MES-1 | 0.932 | 1.02 | 1.05 | 0.81 | 0.682 | 0.849 | 0.826 | 0.925 | 0.673 | 0.324 | 1.2 | 1.21 | 1.24 | 1.17 | 0.788 | 1.42 | 1.22 | 1.17 | 0.931 | 0.787
8 | SW 1573 | 0.672 | 0.665 | 1.04 | 0.819 | 0.83 | 0.237 | 0.186 | 0.242 | 0.179 | 0.164 | 0.933 | 1.35 | 1.07 | 0.996 | 0.628 | 1.02 | 1.01 | 0.856 | 0.912 | 0.567
